Data set [1] addresses Epidermal growth factor receptor (Homo sapiens, UniProt P00533, L858R).
Data set [2] has as its target T1, Epidermal growth factor receptor (Homo sapiens, UniProt P00533). The data set can be described thus: Inhibition of wild-type EGFR in human A431 cells assessed as reduction in cell viability after 96 hrs by CellTiterGlo assay. The class given is ADME, cell-based. (Cellular ATP, detected with luciferase, serves as a proxy for viable cell number.)
Data set [3] has as its system Epidermal growth factor receptor (Homo sapiens), P00533 [T790M]. Nature of the data set: Binding affinity to EGFR T790M mutant (unknown origin) assessed as covalent adduct formation at 100 uM after 1 hr by ESI-MS analysis.
For data set [4], the target named is T2, Tyrosine-protein kinase JAK3 (Homo sapiens) (UniProt P52333).
T2 sequence (whole entry): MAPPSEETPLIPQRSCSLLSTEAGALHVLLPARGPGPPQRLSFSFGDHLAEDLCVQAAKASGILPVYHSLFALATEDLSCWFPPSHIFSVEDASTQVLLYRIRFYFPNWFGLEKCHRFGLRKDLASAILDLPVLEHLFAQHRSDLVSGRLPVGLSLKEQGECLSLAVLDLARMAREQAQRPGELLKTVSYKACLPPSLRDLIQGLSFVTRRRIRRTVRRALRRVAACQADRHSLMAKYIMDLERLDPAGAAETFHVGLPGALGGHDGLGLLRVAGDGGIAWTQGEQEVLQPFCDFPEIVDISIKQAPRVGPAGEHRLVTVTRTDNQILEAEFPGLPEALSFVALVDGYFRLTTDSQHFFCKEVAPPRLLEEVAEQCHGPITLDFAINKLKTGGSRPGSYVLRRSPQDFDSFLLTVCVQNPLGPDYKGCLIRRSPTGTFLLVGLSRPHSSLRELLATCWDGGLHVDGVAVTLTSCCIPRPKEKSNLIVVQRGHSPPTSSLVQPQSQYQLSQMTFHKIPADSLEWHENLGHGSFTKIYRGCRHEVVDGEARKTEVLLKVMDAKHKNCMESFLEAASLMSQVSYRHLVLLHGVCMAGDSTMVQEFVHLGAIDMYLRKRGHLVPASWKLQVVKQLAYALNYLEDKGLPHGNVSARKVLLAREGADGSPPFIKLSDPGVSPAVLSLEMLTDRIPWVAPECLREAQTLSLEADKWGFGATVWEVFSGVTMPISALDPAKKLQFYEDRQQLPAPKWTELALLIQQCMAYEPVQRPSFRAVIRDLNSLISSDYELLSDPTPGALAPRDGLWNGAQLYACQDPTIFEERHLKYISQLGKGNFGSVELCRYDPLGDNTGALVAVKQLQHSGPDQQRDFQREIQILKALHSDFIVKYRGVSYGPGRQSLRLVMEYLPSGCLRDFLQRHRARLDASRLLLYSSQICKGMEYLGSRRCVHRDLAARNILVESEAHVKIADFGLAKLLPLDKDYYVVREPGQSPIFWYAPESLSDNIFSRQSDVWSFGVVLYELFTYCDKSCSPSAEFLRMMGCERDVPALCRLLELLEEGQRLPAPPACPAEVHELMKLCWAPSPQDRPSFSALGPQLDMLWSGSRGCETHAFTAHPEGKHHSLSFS
The data set can be described thus: Inhibition of recombinant human GST-tagged cytoplasmic JAK3 (781 to 1124 amino acid residues) catalytic domain expressed in baculovirus expression system at 1 uM by Z'-LYTE assay.

Data set [5] concerns the target Receptor tyrosine-protein kinase erbB-4 (Homo sapiens) (UniProt Q15303). Nature of the data set: Inhibition of recombinant truncated human His/IgG1 Fc-tagged ERBB4 expressed in mammalian expression system at 1 uM by Z'-LYTE assay.
Data set [6] addresses T3, Tyrosine-protein kinase TXK (Homo sapiens) (UniProt P42681).
T3 sequence (whole entry): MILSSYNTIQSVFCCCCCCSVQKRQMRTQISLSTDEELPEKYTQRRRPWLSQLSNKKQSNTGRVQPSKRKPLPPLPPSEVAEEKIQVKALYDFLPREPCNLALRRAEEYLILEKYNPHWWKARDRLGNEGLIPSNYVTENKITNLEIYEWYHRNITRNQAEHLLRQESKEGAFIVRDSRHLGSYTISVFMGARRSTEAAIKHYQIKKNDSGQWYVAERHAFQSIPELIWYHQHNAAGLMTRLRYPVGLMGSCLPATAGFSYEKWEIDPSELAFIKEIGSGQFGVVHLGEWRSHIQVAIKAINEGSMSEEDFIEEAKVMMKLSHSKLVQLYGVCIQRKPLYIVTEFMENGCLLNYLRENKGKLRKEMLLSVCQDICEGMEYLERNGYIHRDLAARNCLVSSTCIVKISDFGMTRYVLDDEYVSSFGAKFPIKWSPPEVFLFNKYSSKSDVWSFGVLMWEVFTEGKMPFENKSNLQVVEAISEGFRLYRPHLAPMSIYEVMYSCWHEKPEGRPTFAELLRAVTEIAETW
The data set can be described thus: Inhibition of full-length recombinant human N-terminal GST-tagged cytoplasmic TXK (260 to 527 amino acid residues) expressed in baculovirus expression system at 1 uM by Z'-LYTE assay.

The subject of data set [7] is Epidermal growth factor receptor (Homo sapiens), P00533 [L858R,T790M,C797S]. Nature of the data set: Inhibition of EGFR L858R/T790M/C797S triple mutant (unknown origin) by HTRF assay. On the technique in general: TR-FRET usually uses a lanthanide donor and a delayed reading to cut background.
A short description of data set [8]: Stability in mouse plasma assessed as compound remaining at 5 uM after 1 hr by LCMS analysis. The conditions noted are these: read-out: Stability. The class given is ADME, cell-free.
Data set [9] concerns the target T1, Epidermal growth factor receptor. Nature of the data set: Reversible inhibition of wild-type human N-terminal GST-tagged EGFR cytoplasmic domain (669 to 1210 end amino acid residues) expressed in baculovirus expression system using TK peptide substrate preincubated for 2 to 90 mins followed by 6-fold dilution.
In data set [10] the target is Epidermal growth factor receptor (Homo sapiens, UniProt P00533, L858R/T790M). The data set can be described thus: Reversible inhibition of human N-terminal GST-tagged EGFR L858R/T790M double mutant cytoplasmic domain (669 to 1210 end amino acid residues) expressed in baculovirus expression system using TK peptide substrate preincubated for 2 to 90 mins followed by 6-fold dilution.

Data set [11] has as its system Epidermal growth factor receptor (Homo sapiens), P00533 [L861Q]. The conditions noted are these: 1 uM.
Data set [12] deals with Epidermal growth factor receptor (Homo sapiens), P00533 [L858R,T790M]. The conditions noted are these: 1 uM.
The test system is the same in data set [13]. The conditions noted are these: 100 nM.

Calls of active or inactive are those of the source. The rule behind the calls is not given here.

The text below walks through data of ChEMBL document CHEMBL4007434, “Indazole-Based Covalent Inhibitors To Target Drug-Resistant Epidermal Growth Factor Receptor” (J Med Chem, 2017).

Usually IC50 stands for the midpoint of a concentration-inhibition curve. A high value points to a need for much substance. As a reminder, the EC50 is the concentration at which the effect is half-maximal. For orientation: inhibition means the relative decrease from the control value, in per cent. What is called Ki is a measure of affinity in units of concentration, obtained from inhibition or displacement. Read a low Ki as a stronger hold on the target.

Chain of Receptor tyrosine-protein kinase erbB-4 (Homo sapiens) (Q15303 whole entry, the tested form may be a part): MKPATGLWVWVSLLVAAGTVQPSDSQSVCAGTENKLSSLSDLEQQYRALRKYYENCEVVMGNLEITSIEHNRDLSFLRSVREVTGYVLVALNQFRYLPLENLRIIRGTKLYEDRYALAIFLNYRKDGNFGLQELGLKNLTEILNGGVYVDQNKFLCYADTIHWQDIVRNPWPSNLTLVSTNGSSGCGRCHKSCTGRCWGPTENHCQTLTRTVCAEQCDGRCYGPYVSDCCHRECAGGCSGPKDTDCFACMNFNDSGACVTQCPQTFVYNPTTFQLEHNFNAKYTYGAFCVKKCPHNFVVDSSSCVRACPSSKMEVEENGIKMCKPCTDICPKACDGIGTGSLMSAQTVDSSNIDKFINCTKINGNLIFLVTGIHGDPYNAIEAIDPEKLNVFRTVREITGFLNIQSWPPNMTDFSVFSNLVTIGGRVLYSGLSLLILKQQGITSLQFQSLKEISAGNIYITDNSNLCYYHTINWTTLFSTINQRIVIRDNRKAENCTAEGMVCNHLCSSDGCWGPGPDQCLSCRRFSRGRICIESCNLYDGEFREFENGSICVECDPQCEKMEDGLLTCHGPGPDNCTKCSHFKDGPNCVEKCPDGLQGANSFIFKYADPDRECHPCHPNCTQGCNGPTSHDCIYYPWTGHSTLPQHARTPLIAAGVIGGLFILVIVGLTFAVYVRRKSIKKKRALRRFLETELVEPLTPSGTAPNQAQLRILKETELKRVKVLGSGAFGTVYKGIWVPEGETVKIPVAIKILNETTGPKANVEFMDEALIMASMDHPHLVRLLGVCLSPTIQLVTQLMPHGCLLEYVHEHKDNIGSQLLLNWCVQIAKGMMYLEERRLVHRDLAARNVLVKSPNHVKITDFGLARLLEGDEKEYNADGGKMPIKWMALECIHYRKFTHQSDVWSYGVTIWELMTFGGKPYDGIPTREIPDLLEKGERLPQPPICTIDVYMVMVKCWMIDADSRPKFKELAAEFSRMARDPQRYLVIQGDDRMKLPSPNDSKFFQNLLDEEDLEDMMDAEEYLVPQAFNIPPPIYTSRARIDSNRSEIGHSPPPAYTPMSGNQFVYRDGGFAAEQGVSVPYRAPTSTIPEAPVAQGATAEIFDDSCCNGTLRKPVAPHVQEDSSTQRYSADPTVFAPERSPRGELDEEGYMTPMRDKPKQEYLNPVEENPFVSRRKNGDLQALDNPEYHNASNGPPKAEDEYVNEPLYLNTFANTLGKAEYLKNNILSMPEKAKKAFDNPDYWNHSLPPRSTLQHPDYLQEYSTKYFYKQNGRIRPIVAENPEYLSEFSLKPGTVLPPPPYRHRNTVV

In turn, `C=CC(=O)Nc1cc(Nc2n[nH]c3cc(Nc4cccc(F)c4)ccc23)c(OC)cc1N(C)CCN(C)C` returned an IC50 in data set [1] of less than 1 nM. Moreover, the EC50 in [2] is 3100 nM. For the same molecule, the result in [3] was Active. Also, the inhibition was greater than 85% in data set [4], greater than 85% in data set [6], greater than 95% in [11] and greater than 95% in data set [12]. Also, the inhibition entry in [5] and in [13] was “Active” each time. Further, in [7], the inhibition entry was “inactive”. The remaining at 1 h, 5 µM in data set [8] was greater than 90%. The Ki in data set [9] was 5.1 nM; in [10] it was 7.4 nM.
